Experimental findings from patent publication US20260056197A1, “METHOD FOR MEASURING TRACP-5b AND KIT THEREFOR” (NITTO BOSEKI CO., LTD., priority 2023, published 2026) are described below.

What all share (format): biochemical
For assay [1], the system named is TRACP-5b. Kind of assay: Test 1: evaluation of TRACP-5a inhibitor in an enzyme method. The note with it: Table 4; 0.1 mass % evaluation compound in chromogenic substrate solution; 7 U/L TRACP-5b solution; control without compound 6.9. On the procedure: The amount of absorbance change per minute (the amount of absorbance change per unit time during the enzymatic reaction) was determined from the absorbance change between both the time points.
(§1) On the other hand, serial dilutions of a TRACP-5b reference solution with known activity in a 22 mM MES buffer solution (pH 5.0) as well as a 22 mM MES buffer solution (pH 5.0) as a blank were prepared; the serial dilutions of the TRACP-5b reference solution were measured using the chromogenic substrate solution containing each evaluation compound, thereby producing a standard straight line for the TRACP-5b. In addition, the serial dilutions of the TRACP-5b reference solution were measured using the chromogenic substrate solution without any evaluation compound in the same manner, thereby producing a standard straight line for the TRACP-5b. The chromogenic substrate solution containing each evaluation compound and the chromogenic substrate solution without any evaluation compound were used to measure the TRACP-5b solution and the TRACP-5a solution, and these standard straight lines were used to calculate activity values from the obtained amounts of absorbance change.

The subject of assay [2] is TRACP-5b. Put plainly: Test 2: study of concentration of TRACP-5a inhibitor (enzyme method). Particulars: Table 8, 7 U/L TRACP-5b solution, control 6.9. On the procedure: (§2) For the measurement, Hitachi automatic analyzer model 7180 (Hitachi High-Tech Corporation) was used. To 16 μL of the 7 U/L TRACP-5b solution, or the 7 U/L TRACP-5a solution or the 8 U/L TRACP-5a solution, 200 μL of the chromogenic substrate solution containing an evaluation compound was added to start an enzymatic reaction, and the absorbance (primary wavelength: 405 nm, secondary wavelength: 480 nm) was measured for 516.0 seconds starting at 340.5 seconds after the beginning of the enzymatic reaction. The amount of absorbance change per minute (the amount of absorbance change per unit time during the enzymatic reaction) was determined from the absorbance change between both the time points.
as §1
(§3) For dextran sulfate sodium (5K), dextran sulfate sodium (50K), sodium polyvinyl sulfonate (5K), and sodium vinylsulfonate, the influence of the concentration on the inhibitory activity was studied.
(§4) The concentration of each evaluation compound in the measurement reagent (chromogenic substrate solution) was adjusted as follows.
(§5) A 7 U/L TRACP-5b solution and a 7 U/L TRACP-5a solution were used in the test using a reagent containing dextran sulfate sodium (5K) and dextran sulfate sodium (50K); a 7 U/L TRACP-5b solution and a 7 U/L or 8 U/L TRACP-5a solution were used in the test using a reagent containing sodium polyvinyl sulfonate (5K); and a 7 U/L TRACP-5b solution and an 8 U/L TRACP-5a solution were used in the test using a reagent containing sodium vinylsulfonate.
(§6) The chromogenic substrate solution having the same composition as in Test 1 was used, except that the concentration of each evaluation compound was as described above. The measurement method was carried out in the same procedure as in Test 1.

Assay [3] has as its target T1, TRACP-5a (Homo sapiens, UniProt P13686).
T1 construct: purchased R&D Systems, Inc
T1 sequence (P13686 22-325): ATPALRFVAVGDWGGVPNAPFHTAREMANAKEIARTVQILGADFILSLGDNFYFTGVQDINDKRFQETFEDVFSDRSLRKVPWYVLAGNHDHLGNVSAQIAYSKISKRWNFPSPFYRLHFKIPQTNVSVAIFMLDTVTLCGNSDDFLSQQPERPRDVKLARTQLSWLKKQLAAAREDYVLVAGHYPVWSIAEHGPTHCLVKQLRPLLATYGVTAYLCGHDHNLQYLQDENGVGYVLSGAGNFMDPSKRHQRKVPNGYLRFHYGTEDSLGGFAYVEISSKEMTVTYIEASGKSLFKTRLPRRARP
The assay is described as above. Particulars: Table 8; for Activity value 5a: 8 U/L TRACP-5a solution, control 8.0; for 5b/5a ratio: control 0.9. Here is the method: as §2, §1, §3, §4, §5, §6

Assay [4] concerns the target T1, TRACP-5a. Kind of assay: Test 1: evaluation of TRACP-5a inhibitor in an enzyme method. The note with it: Table 4, 0.1 mass % evaluation compound in chromogenic substrate solution; for Activity value 5a: 7 U/L TRACP-5a solution, control without compound 6.5; for 5b/5a ratio: control without compound 1.1. Here is the method:
TRACP-5b manufactured by Nittobo Medical Co., Ltd. and TRACP-5a manufactured by R&D Systems, Inc. were diluted with a 22 mM MES buffer (pH 5.0) to prepare a 7 U/L TRACP-5b solution and a 7 U/L TRACP-5a solution, and the solutions were used as measurement samples. In the measurement with sodium hyaluronate, a 7 U/L TRACP-5b solution and an 8 U/L TRACP-5a solution prepared in the same manner were used.
A chromogenic substrate solution having the following composition was used. • 5 mM 2-chloro-4-nitrophenyl phosphate • 109 mM MES • 40 mM sodium tartrate • 0.1 mass % evaluation compound • pH 6.6
as §2, §1
The measurement using sodium hyaluronate was performed in a separate batch from that with other evaluation compounds.

Assay [5] concerns TRACP-5b. Put plainly: Evaluation of TRACP-5a inhibitor in EIA method. Particulars: Table 14, antibody-immobilized plate, 0.1 mass % evaluation compound in chromogenic substrate solution, 7 U/L TRACP-5b solution, control without compound 0.2477. Here is the method: (§7) A TRACP-5b monoclonal antibody (Accession Number IPOD FERM BP-7890) was diluted with PBS (8 mM disodium hydrogenphosphate, 1.5 mM sodium dihydrogenphosphate, 2.7 mM KCl, and 137 mM NaCl; pH 7.5) to 10 µg/mL, and 100 μL of the antibody-containing solution was added to each well of an ELISA plate (manufactured by Thermo Fisher Scientific, Inc., product number 468667). The solution was left to stand overnight under refrigeration, then washed 3 times with 300 μL of TBS-T (50 mM Tris-HCl, 150 mM NaCl, and 0.05% Tween 20; pH 7.5), then 300 μL of TBS containing 1.5% BSA was added, and the mixture was left to stand overnight under refrigeration.
(§8) After the TBS containing 1.5% BSA was removed from the prepared antibody-immobilized plate, 100 μL of TBS (50 mM Tris-HCl and 150 mM NaCl, pH 7.5) and 50 μL of the 7 U/L TRACP-5b solution or the 7 U/L TRACP-5a solution were added to each well, and the mixture was reacted for 1 hour under stirring (25° C., 700 rpm). After washing 3 times with 300 µL of TBS-T, 100 μL of a chromogenic substrate solution (5 mM 2-chloro-4-nitrophenyl phosphate, 109 mM MES, and 40 mM sodium tartrate; pH 6.6) to which the evaluation compound was added at a concentration of 0.1 mass % was added to each well, and the plate was left to stand at 37° C. for 1 hour. Thereafter, 50 μL of 0.5 N NaOH was added, and the absorbance (primary wavelength: 405 nm, secondary wavelength: 490 nm) was measured with a plate reader.

Assay [6] addresses T1, TRACP-5a. Kind of assay: Evaluation of TRACP-5a inhibitor in EIA method. The note with it: for 5b/5a ratio: Table 14, 0.1 mass % evaluation compound in chromogenic substrate solution, control without compound 1.3; for Abs. 405 nm 5a: Table 14, antibody-immobilized plate, 0.1 mass % evaluation compound in chromogenic substrate solution, 7 U/L TRACP-5a solution, control without compound 0.1956. On the procedure:
as §7, §8

Turning to `C=CS(=O)(=O)[O-].[Na+]` [Example 5, Sodium vinylsulfonate], the “Activity value 5b” value in the assay with TRACP-5b [1] is listed as 6.5 U/L; with TRACP-5b [2] (VSA Na 0.0100 mass %) it was 6.8 U/L; in the assay on TRACP-5b [2] (VSA Na 0.0150 mass %), 6.8 U/L. In addition, the “Activity value 5a” value at TRACP-5a [3] (VSA Na 0.0100 mass %) worked out at 6.8 U/L; at TRACP-5a [3] (VSA Na 0.0150 mass %), 5.6 U/L; on TRACP-5a [4], 1.6 U/L. Besides, the 5b/5a ratio is given as 1.0 at TRACP-5a [3] (VSA Na 0.0100 mass %), 1.2 on TRACP-5a [3] (VSA Na 0.0150 mass %), 4.1 on TRACP-5a [4] and 3.4 on TRACP-5a [6]. In addition, the “Abs. 405 nm 5b” value in the assay with TRACP-5b [5] is listed as 0.2600. Also, the “Abs. 405 nm 5a” value on TRACP-5a [6] worked out at 0.0775.

For the compound Sodium vinylsulfonate [Example 5], the “Activity value 5b” value in the assay with TRACP-5b [2] (VSA Na 0.0200 mass %) worked out at 6.9 U/L. Further, on TRACP-5a [3] (VSA Na 0.0200 mass %), the “Activity value 5a” value came to 4.5 U/L and the 5b/5a ratio came out at 1.5.

With “β-cyclodextrin sodium sulfate [Comparative example 1, reference compound]”, the “Activity value 5b” value in the assay on TRACP-5b [1] is 6.7 U/L. On TRACP-5a [4], the “Activity value 5a” value was 2.3 U/L and the 5b/5a ratio stood at 2.9. In addition, the “Abs. 405 nm 5b” value in the assay with TRACP-5b [5] worked out at 0.1971. At TRACP-5a [6], the 5b/5a ratio was 2.3 and the “Abs. 405 nm 5a” value turned out to be 0.0853.
